Values joined by “and” are separate entries in the source; they are usually repeats but may differ in a detail not shown here. Identical values can stand only once.
Key:
[1] = tested on: urinary polyamines; experiment: NMTRC 002: urinary polyamine levels during DFMO therapy; type: in vivo, human
Experimental: Urinary Polyamine Levels. Patients were consented for urine analysis in NMTRC 002. […] Polyamines with at least one free primary amine were quantified using reverse-phase high-performance liquid chromatography (HPLC) as previously described (Thompson et al., 2010). Urinary N^1,N^12-diacetylspermine (N^1,N^12-Ac2Spm or DAS) was determined using the auto DAS reagent kit (Alfresa Pharma Co., Osaka, Japan), according to the manufacturer's instructions. The assay involves the specific binding between a bovine serum albumin-acetylspermine conjugate, as a DAS mimic, and colloidal gold antibody complexes, and has been previously described (Kawakita et al., 2011).

[2] = tested on: high-risk neuroblastoma in complete remission; experiment: NMTRC003 phase II prevention trial: event free and overall survival; type: in vivo, human
Description: Study Design. This was an open label, single agent, multicenter clinical trial for patients with high-risk neuroblastoma in complete remission at the completion of standard therapy. […] Prior to study entry, written informed consent was obtained from the subjects' parent(s) or guardian(s) and, when appropriate, written assent was obtained from subjects. ClinicalTrials.gov Identifiers: NCT01586260/NCT02395666.
Subjects were required to have histologically confirmed International Neuroblastoma Staging System (INSS) high-risk neuroblastoma at the time of diagnosis. Subjects must have completed standard high-risk neuroblastoma (HRNB) therapy with 5-7 cycles of induction chemotherapy, surgical resection of primary tumor (if feasible), consolidative therapy with high-dose chemotherapy/autologous stem cell support and radiation therapy as indicated, and anti-GD2 antibody therapy with isotretinoin for up to 6 cycles. […] To be considered in complete remission, subjects had to have no radiographic evidence for persistent neuroblastoma by CT or MRI (and by metaiodobenzylguanidine (MIBG) in subjects whose tumors were originally MIBG avid), histologically negative bone marrow aspirate/biopsy, and normal urinary catecholamines as assessed by ratios of vanillylmandelic acid and homovanillic acid to creatinine. Subjects with residual masses or bone changes visible on CT or MRI could still be considered in CR if the lesions were negative by both MIBG and PET scans.
Dosing diaries were required to be completed for each cycle. […] The primary endpoint was Event Free Survival (EFS); secondary objectives included Overall Survival (OS) and safety. EFS was defined as the period from the first day of administration of study drug to the first occurrence of relapse or death, and OS was defined as the first day of administration of study drug until death; subjects without an event were censored at the time of last contact. Safety analysis was conducted on all subjects who received at least one dose of study drug, and included the frequency, grading, expectedness and attribution of all adverse events as well as dose interruptions, dose reductions, and treatment discontinuation.
Statistical Analysis: Estimation and hypothesis testing based on survival data. Event-free and overall survival were estimated using the method of Kaplan and Meier (Meier, 1958) while standard errors were estimated using Greenwood's formula. […] However, NMTRC003 patients enrolled on ANBL0032 represent a subset of the ANBL0032 population, patients event-free at the start of NMTRC003 therapy (6-10 months after the start of ANBL0032 therapy) (Yu et al., 2010). Therefore, it was necessary to adjust the published ANBL0032 EFS using the definition of conditional probability for a direct comparison. […]

[3] = tested on: tumors harboring Ki-ras mutations; conditions: AOM-treated rats, reduced from 90% (Singh et al., 1994); cited from earlier work
[4] = adults; cited from earlier work
[5] = tested on: NB cells; conditions: DFMO in the 50-150 μM range; cited from earlier work

Which results are given for `NCCCC(N)(C(=O)O)C(F)F` (stereo not drawn) [DFMO, 2,5-diamino-2-(difluoromethyl) pentanoic acid]?
DAS increase from Cycle 1 Day 1, individual patients ([1]; DFMO dose 500 mg/m^2 BID): Yes and No; UPA Cycle 1 Day 8 (sum of putrescine, N1AcSpd, N8AcSpd and DAS), individual patients ([1]; DFMO dose 500 mg/m^2 BID): 4.20 and 15.70 and 11.69; DAS increase from Cycle 1 Day 1, individual patients ([1]; DFMO dose 750 mg/m^2 BID): No (2×) and Yes (3×); UPA Cycle 1 Day 8 (sum of putrescine, N1AcSpd, N8AcSpd and DAS), individual patients ([1]; DFMO dose 750 mg/m^2 BID): 7.80 and 22.08 and 1.94 and 13.46; DAS increase from Cycle 1 Day 1, individual patients ([1]; DFMO dose 1000 mg/m^2 BID): No and Yes (2×); UPA Cycle 1 Day 8 (sum of putrescine, N1AcSpd, N8AcSpd and DAS), individual patients ([1]; DFMO dose 1000 mg/m^2 BID): 8.71 and 3.89 and 3.28; DAS increase from Cycle 1 Day 1, individual patients ([1]; DFMO dose 1500 mg/m^2 BID): Yes (4×) and No (3×); UPA Cycle 1 Day 8 (sum of putrescine, N1AcSpd, N8AcSpd and DAS), individual patients ([1]; DFMO dose 1500 mg/m^2 BID): 5.61 and 3.98 and 6.99 and 3.77 and 8.81 and 7.38 and 5.93; UPA (C1D1 − C8D1)/C1D1 × 100 ([1]; ODC SNP rs2302615 genotype Any A): 0.66 ± 92.00; UPA (C1D1 − C8D1)/C1D1 × 100 ([1]; ODC SNP rs2302615 genotype GG): 23.26 ± 35.59; UPA (C1D1 − C8D1)/C1D1 × 100 ([1]; ODC SNP rs2302616 genotype Any T): 48.32 ± 18.24; UPA (C1D1 − C8D1)/C1D1 × 100 ([1]; ODC SNP rs2302616 genotype GG): −24.46 ± 83.67; increase of urinary polyamine levels from baseline ([1]; after one week of DFMO therapy, GG genotype at rs2302616): ~25%; decrease of urinary polyamine levels from baseline ([1]; after one week of DFMO therapy, minor T allele at rs2302616): ~50%; change in urinary N^1AcSpd between Day 8 and 15 ([1]; cycle 1, N=16 patients with complete data, P=1.000): No change; patients with increased urinary DAS ([1]; disease progression within 100 days of therapy start): 9/10; urinary N^1AcSpd contents ([1]; first two weeks of treatment, population as a whole): reduced; average decrease of urinary polyamines from baseline ([1]; patients with disease progression after 100 days from start of therapy): 1.57±3.37 μmol/g Creatinine; average increase of total urinary polyamines (putrescine+N^1AcSpd+N^8AcSpd+DAS) from baseline ([1]; patients with disease progression less than 100 days after start of therapy): 6.56±16.29 μmol/g Creatinine; patients with increased urinary DAS ([1]; progression free up to 100 days): 1/7; subjects who have relapsed to date ([2]; ITT population (91)): 6; relapses after completion of DFMO therapy (all 27 cycles) ([2]; follow up of up to 3.5 years): no late relapses and None; outcome of subjects with Curie score greater than 0 prior to immunotherapy ([2]; n=4 of 52 with known Curie score, ANBL0032 followed by DFMO): remain in remission; 2-year event free survival (EFS) ([2]; subjects previously enrolled on ANBL0032 (n=74)): 95% (±3%) and 95% (+/−3%); tumors harboring Ki-ras mutations [3]: 36%; elimination half-life of DFMO [4]: 2 to 4 h; killing of NB cells [5]: do not kill NB cells

From patent US12582625B2, “Methods for treating neuroblastoma” (priority 2015, dated 2026)
